Test results: patent US10544134B2, “4-substituted coumarin derivatives and preparation methods and uses thereof” (SI CHUAN UNIVERSITY, priority 2015, dated 2020)
Like-named read-outs stand apart in the source and are kept apart here.

Experiments:
Experiment in all cases: Tumor cell proliferation inhibitory activity test in vitro (MTT)
melanoma A375 = format: cell-based, human; conditions: read-out: IC50 of compounds for tumor cells, Activity, A375
Excerpt: (§1) Human non-small cell lung cancer cell line NCI-H460, human small cell lung cancer cell line NCI-H446, human hepatocellular carcinoma cell strain HepG2, human colon carcinoma cell strain HCT116, human prostate cancer PC-3, human melanoma A375, colon carcinoma cell HCT-8, breast cancer cell MCF-7, ovarian cancer cell A2780s, drug-resistant ovarian cancer cell A2780/T, drug-resistant colon cancer cell HCT-8/T and doxorubicin-resistant breast cancer cell MCF-7/ADR are obtained from American Type Culture Collection (ATCC) and are cultured and preserved by the cell bank of State Key Laboratory of Biotherapy of Sichuan University. Above tumor cells are routinely cultured in DMEM culture medium containing 10% fetal bovine serum, 100 U·mL-1 penicillin and 100 mg·L−1 streptomycin, and in an incubator at 37° C. and with saturated humidity and 5% CO2 concentration.
(§2) Fill diluted cell suspension in the 96-well plate with 1000-10000 cells per well and incubate it in CO2 incubator overnight.
(§3) Replace with new medium containing various concentrations of compounds to be tested for the test group and replace with fresh medium with equal volume for the control group, each group is arranged with 5 parallel wells and incubated in an incubator at 37° C. and with 5% CO2 concentration.
(§4) Discard the supernatant after 72 hours, add 200 μL freshly prepared serum-free medium containing 0.2 mg/mL MTT into each well, continue to incubate at 37° C. for 1-4 hours, then stop incubation, carefully remove the culture supernatant in the wells and add 200 uL DMSO (dimethyl sulfoxide), oscillate with a miniature ultrasonic oscillator for 15-20 minutes to make the crystal fully dissolved and mixed. Determine OD values using a microplate reader at 570 nm with a reference wavelength of 450 nm.
(§5) Draw curves based on the growth inhibition rate for tumor cells of the same sample with different concentrations to get dose-response curve, so as to calculate IC50. Repeat each test for 3 times, measure IC50 (μM) or nanomolor concentration (nM) of compounds in different tumor cells.

[1] = system: colon carcinoma cell HCT116; format: cell-based, human; conditions: read-out: IC50 of compounds for tumor cells, Activity, HCT116
Excerpt: as §1, §2, §3, §4, §5

[2] = system: non-small cell lung cancer cell line NCI-H460; format: cell-based, human; conditions: read-out: IC50 of compounds for tumor cells, Activity, H460
Excerpt: as §1, §2, §3, §4, §5

[3] = system: hepatocellular carcinoma cell HEPG2; format: cell-based, human; conditions: read-out: IC50 of compounds for tumor cells, Activity, HEPG2
Excerpt: as §1, §2, §3, §4, §5

prostate cancer PC-3 = format: cell-based, human; conditions: 72 hours, read-out: IC50 of compounds for tumor cells, Activity, PC-3
Excerpt: as §1, §2, §3, §4, §5

breast cancer cell MCF-7 = format: cell-based; conditions: read-out: IC50 of compounds for tumor cells, Activity, MCF-7
Excerpt: as §1, §2, §3, §4, §5

[4] = Homo sapiens, HCT-116, 72 hours
[5] = Homo sapiens, NCI-H460, 72 hours

Compound | IC50 (melanoma A375; Homo sapiens, A-375, 72 hours) | IC50 [1, 4] | IC50 [2, 5] | IC50 ([3]; Homo sapiens, HepG2, 72 hours) | IC50 (prostate cancer PC-3; Homo sapiens) | IC50 (breast cancer cell MCF-7; Homo sapiens, MCF7, 72 hours) | IC50 (melanoma A375; 72 hours) | IC50 ([1]; 72 hours) | IC50 ([2]; 72 hours) | IC50 ([3]; 72 hours) | IC50 (prostate cancer PC-3) | IC50 (breast cancer cell MCF-7; 72 hours)
COc1cccc(-c2ccc(-c3cc(=O)oc4ccccc34)s2)c1 [COUM-29, 4-(5-(3-methoxyphenyl)thiophene-2-yl)-coumarin] | > 5 µM | > 5 µM | > 5 µM | > 5 µM | > 5 µM | > 5 µM |  |  |  |  |  | 
COc1ccc2c(-c3ccc(-c4ccccc4OC)s3)cc(=O)oc2c1 [COUM-12, 4-(5-(2-methoxybenzene)thiophene-2-yl)-7-methoxyl-coumarin] | > 5 µM | > 5 µM | > 5 µM | > 5 µM | > 5 µM | > 5 µM |  |  |  |  |  | 
COc1cc(-c2ccc(-c3cc(=O)oc4ccccc34)o2)cc(OC)c1OC [COUM-20, 4-(5-(3,4,5-trimethoxyphenyl)furan-2-yl)-coumarin] | > 5 µM | > 5 µM | > 5 µM | > 5 µM | > 5 µM | > 5 µM |  |  |  |  |  | 
4-(N-methyl-N-(4-methoxy-3-(3-chlorophenyl-methoxycarbonyl)-benzene)-amino) Coumarin [COUM-62] |  |  |  |  |  |  | 0.1 to 5 µM | 0.1 to 5 µM | 0.1 to 5 µM | 0.1 to 5 µM | 0.1 to 5 µM | 0.1 to 5 µM
COc1ccc(N(C)c2cc(=O)oc3ccccc23)cc1OCCN1CCOCC1 [COUM-49, 4-(N-methyl-N-(4-methoxy-3-(2-morpholinoethoxy)-benzene)-amino) Coumarin] |  |  |  |  |  |  | 0.1 to 5 µM | 0.1 to 5 µM | 0.1 to 5 µM | 0.1 to 5 µM | 0.1 to 5 µM | 0.1 to 5 µM
CS(=O)(=O)c1ccc(-c2ccc(-c3cc(=O)oc4ccccc34)o2)cc1 [COUM-16, 4-(5-(4-methylsulfonylphenyl)furan-2-yl)-coumarin] | > 5 µM | > 5 µM | > 5 µM | > 5 µM | > 5 µM | > 5 µM |  |  |  |  |  | 
COc1ccc2c(-c3ccc(-c4ccccc4Cl)s3)cc(=O)oc2c1 [COUM-34, 4-(5-(2-chlorobenzene)thiophene-2-yl)-7-methoxyl-coumarin] | > 5 µM | > 5 µM | > 5 µM | > 5 µM | > 5 µM | > 5 µM |  |  |  |  |  | 
COc1ccc(N(C)c2cc(=O)oc3cc(OC)ccc23)cc1 [COUM-40, 4-(N-methyl-N-(4-methoxybenzene)-amino)-7-methoxycoumarin] | 0.01 to 0.1 µM | 0.01 to 0.1 µM | 0.01 to 0.1 µM | 0.01 to 0.1 µM | 0.01 to 0.1 µM | 0.01 to 0.1 µM |  |  |  |  |  | 
COc1ccc(N(C)c2cc(=O)oc3ccccc23)cc1 [COUM-43, 4-(N-methyl-N-(4-methoxybenzene)-amino) coumarin] | 0.01 to 0.1 µM | 0.01 to 0.1 µM | 0.01 to 0.1 µM | 0.01 to 0.1 µM | 0.01 to 0.1 µM | 0.01 to 0.1 µM |  |  |  |  |  | 
COc1ccc(N(C)c2cc(=O)oc3ccccc23)cc1NC(=O)CCC(=O)O [COUM-98, 4-(N-methyl-N-(4-methoxy-3-(1-carboxylic acid-propanecarbonylamino-)phenyl)-amino) Coumarin] | 0.1 to 5 µM | 0.1 to 5 µM | 0.1 to 5 µM | 0.1 to 5 µM | 0.1 to 5 µM | 0.1 to 5 µM |  |  |  |  |  | 
COc1cccc(-c2ccc(-c3cc(=O)oc4cc(OC)ccc34)s2)c1 [COUM-33, 4-(5-(3-methoxybenzene)thiophene-2-yl)-7-methoxyl-coumarin] | > 5 µM | > 5 µM | > 5 µM | > 5 µM | > 5 µM | > 5 µM |  |  |  |  |  | 
COc1ccc(N(C)c2cc(=O)oc3ccccc23)cc1OC(=O)CCCl [COUM-60, 4-(N-methyl-N-(4-methoxy-3-(2-chloroethylcarbonyloxy)-benzene)-amino) Coumarin] |  |  |  |  |  |  | 0.1 to 5 µM | 0.1 to 5 µM | 0.1 to 5 µM | 0.1 to 5 µM | 0.1 to 5 µM | 0.1 to 5 µM
O=c1cc(-c2ccc(-c3cccc(Cl)c3)s2)c2ccccc2o1 [COUM-8, 4-(5-(3-chlorobenzene)thiophene-2-yl)-coumarin] | > 5 µM | > 5 µM | > 5 µM | > 5 µM | > 5 µM | > 5 µM |  |  |  |  |  | 
